In PubChem BioAssay (NCI):
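Results reflect a 48-hour exposure of cells in 96-well plates to compound at five concentrations. Abbreviation: GI50, concentration required for 50% inhibition of growth. TGI: concentration producing complete growth inhibition.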

Legend:
Test in all cases: NCI tumour cell line growth inhibition, 48 h
DU-145 prostate = system: DU-145 prostate
HT29 colon = system: HT29 colon
COLO 205 colon = system: COLO 205 colon
MDA-MB-435 = system: MDA-MB-435
SF-295 CNS = system: SF-295 CNS
SNB-19 CNS = system: SNB-19 CNS
U251 CNS = system: U251 CNS
786-0 renal = system: 786-0 renal
HS 578T breast = system: HS 578T breast
SK-MEL-2 melanoma = system: SK-MEL-2 melanoma
CAKI-1 renal = system: CAKI-1 renal
SR leukemia = system: SR leukemia
SK-MEL-5 melanoma = system: SK-MEL-5 melanoma
KM12 colon = system: KM12 colon
SNB-75 CNS = system: SNB-75 CNS
UO-31 renal = system: UO-31 renal
PC-3 prostate = system: PC-3 prostate
T-47D breast = system: T-47D breast
HCC-2998 colon = system: HCC-2998 colon
MDA-MB-231 breast = system: MDA-MB-231 breast
SK-MEL-28 melanoma = system: SK-MEL-28 melanoma
HL-60(TB) leukemia = system: HL-60(TB) leukemia
RPMI-8226 leukemia = system: RPMI-8226 leukemia
OVCAR-3 ovarian = system: OVCAR-3 ovarian
TK-10 renal = system: TK-10 renal
MCF7 breast = system: MCF7 breast
M14 melanoma = system: M14 melanoma
ACHN renal = system: ACHN renal
MALME-3M melanoma = system: MALME-3M melanoma
OVCAR-4 ovarian = system: OVCAR-4 ovarian
NCI/ADR-RES ovarian = system: NCI/ADR-RES ovarian
UACC-62 melanoma = system: UACC-62 melanoma
NCI-H226 lung = system: NCI-H226 lung
LOX IMVI melanoma = system: LOX IMVI melanoma
NCI-H522 lung = system: NCI-H522 lung
HOP-62 NSCLC = system: HOP-62 NSCLC
SN12C renal = system: SN12C renal
OVCAR-5 ovarian = system: OVCAR-5 ovarian
SK-OV-3 ovarian = system: SK-OV-3 ovarian
SF-268 CNS = system: SF-268 CNS
SW-620 colon = system: SW-620 colon
BT-549 breast = system: BT-549 breast
K-562 leukemia = system: K-562 leukemia
HCT-116 colon = system: HCT-116 colon
A498 renal = system: A498 renal
RXF 393 renal = system: RXF 393 renal
SF-539 CNS = system: SF-539 CNS
OVCAR-8 ovarian = system: OVCAR-8 ovarian
MOLT-4 leukemia = system: MOLT-4 leukemia
NCI-H23 lung = system: NCI-H23 lung
NCI-H460 lung = system: NCI-H460 lung
CCRF-CEM leukemia = system: CCRF-CEM leukemia
UACC-257 melanoma = system: UACC-257 melanoma
HCT-15 colon = system: HCT-15 colon
IGROV1 ovarian = system: IGROV1 ovarian
A549 NSCLC = system: A549 NSCLC

SMILES: Cn1cc(C2=C(c3cn(CCO)c4ccccc34)C(=O)NC2=O)c2ccccc21
- GI50 (DU-145 prostate): 6.94 µM
- TGI (DU-145 prostate): > 23.8 µM
- GI50 (HT29 colon): 1500 nM
- TGI (HT29 colon): > 14.9 µM
- GI50 (COLO 205 colon): 1250 nM
- TGI (COLO 205 colon): 5.89 µM
- GI50 (MDA-MB-435): 746 nM
- TGI (MDA-MB-435): > 25 µM
- GI50 (SF-295 CNS): 1180 nM
- TGI (SF-295 CNS): 7.58 µM
- GI50 (SNB-19 CNS): 7.09 µM
- TGI (SNB-19 CNS): > 25 µM
- GI50 (U251 CNS): 1980 nM
- TGI (U251 CNS): 13.7 µM
- GI50 (786-0 renal): 5.01 µM
- TGI (786-0 renal): > 25 µM
- GI50 (HS 578T breast): 1490 nM
- TGI (HS 578T breast): 14.5 µM
- GI50 (SK-MEL-2 melanoma): 1650 nM
- TGI (SK-MEL-2 melanoma): 8.37 µM
- GI50 (CAKI-1 renal): 3.79 µM
- TGI (CAKI-1 renal): > 24.1 µM
- GI50 (SR leukemia): 1020 nM
- TGI (SR leukemia): > 23.3 µM
- GI50 (SK-MEL-5 melanoma): 2550 nM
- TGI (SK-MEL-5 melanoma): 9.67 µM
- GI50 (KM12 colon): 2000 nM
- TGI (KM12 colon): 9.4 µM
- GI50 (SNB-75 CNS): 634 nM
- TGI (SNB-75 CNS): 6.5 µM
- GI50 (UO-31 renal): 3.2 µM
- TGI (UO-31 renal): 14.6 µM
- GI50 (PC-3 prostate): 4.59 µM
- TGI (PC-3 prostate): > 25 µM
- GI50 (T-47D breast): 3.96 µM
- TGI (T-47D breast): 13.1 µM
- GI50 (HCC-2998 colon): 5.56 µM
- TGI (HCC-2998 colon): > 23.6 µM
- GI50 (MDA-MB-231 breast): 5.98 µM
- TGI (MDA-MB-231 breast): > 22.4 µM
- GI50 (SK-MEL-28 melanoma): 3.76 µM
- TGI (SK-MEL-28 melanoma): 20.2 µM
- GI50 (HL-60(TB) leukemia): 1120 nM
- TGI (HL-60(TB) leukemia): 6.36 µM
- GI50 (RPMI-8226 leukemia): 5.33 µM
- TGI (RPMI-8226 leukemia): 16 µM
- GI50 (OVCAR-3 ovarian): 1780 nM
- TGI (OVCAR-3 ovarian): 14 µM
- GI50 (TK-10 renal): 4.58 µM
- TGI (TK-10 renal): 15.5 µM
- GI50 (MCF7 breast): 1240 nM
- TGI (MCF7 breast): > 25 µM
- GI50 (M14 melanoma): 2120 nM
- TGI (M14 melanoma): > 25 µM
- GI50 (ACHN renal): 4 µM
- TGI (ACHN renal): > 25 µM
- GI50 (MALME-3M melanoma): 6.9 µM
- TGI (MALME-3M melanoma): 17.5 µM
- GI50 (OVCAR-4 ovarian): 7.83 µM
- TGI (OVCAR-4 ovarian): > 25 µM
- GI50 (NCI/ADR-RES ovarian): 5.6 µM
- TGI (NCI/ADR-RES ovarian): > 22 µM
- GI50 (UACC-62 melanoma): 2580 nM
- TGI (UACC-62 melanoma): 7.99 µM
- GI50 (NCI-H226 lung): 4.76 µM
- TGI (NCI-H226 lung): > 19.6 µM
- GI50 (LOX IMVI melanoma): 2770 nM
- TGI (LOX IMVI melanoma): > 25 µM
- GI50 (NCI-H522 lung): 1640 nM
- TGI (NCI-H522 lung): 10.8 µM
- GI50 (HOP-62 NSCLC): 3.36 µM
- TGI (HOP-62 NSCLC): > 16.6 µM
- GI50 (SN12C renal): 4.75 µM
- TGI (SN12C renal): > 25 µM
- GI50 (OVCAR-5 ovarian): 10.9 µM
- TGI (OVCAR-5 ovarian): > 25 µM
- GI50 (SK-OV-3 ovarian): 2610 nM
- TGI (SK-OV-3 ovarian): > 21.9 µM
- GI50 (SF-268 CNS): 4.19 µM
- TGI (SF-268 CNS): 15.4 µM
- GI50 (SW-620 colon): 1210 nM
- TGI (SW-620 colon): > 25 µM
- GI50 (BT-549 breast): 3.14 µM
- TGI (BT-549 breast): 11.9 µM
- GI50 (K-562 leukemia): 1120 nM
- TGI (K-562 leukemia): > 25 µM
- GI50 (HCT-116 colon): 1490 nM
- TGI (HCT-116 colon): > 25 µM
- GI50 (A498 renal): 1450 nM
- TGI (A498 renal): 7.78 µM
- GI50 (RXF 393 renal): 3.22 µM
- TGI (RXF 393 renal): 9.54 µM
- GI50 (SF-539 CNS): 1400 nM
- TGI (SF-539 CNS): 8.9 µM
- GI50 (OVCAR-8 ovarian): 5.48 µM
- TGI (OVCAR-8 ovarian): > 21.9 µM
- GI50 (MOLT-4 leukemia): 1360 nM
- TGI (MOLT-4 leukemia): 16.8 µM
- GI50 (NCI-H23 lung): 4.75 µM
- TGI (NCI-H23 lung): 15.2 µM
- GI50 (NCI-H460 lung): 2060 nM
- TGI (NCI-H460 lung): > 25 µM
- GI50 (CCRF-CEM leukemia): 1370 nM
- TGI (CCRF-CEM leukemia): > 20 µM
- GI50 (UACC-257 melanoma): 4.75 µM
- TGI (UACC-257 melanoma): 22.6 µM
- GI50 (HCT-15 colon): 1570 nM
- TGI (HCT-15 colon): > 25 µM
- GI50 (IGROV1 ovarian): 4.93 µM
- TGI (IGROV1 ovarian): 14.9 µM
- GI50 (A549 NSCLC): 3.05 µM
- TGI (A549 NSCLC): > 25 µM
